The values below come from ChEMBL document CHEMBL1137108, “Antiviral compounds from traditional Chinese medicines Galla Chinese as inhibitors of HCV NS3 protease” (Bioorg Med Chem Lett, 2004).

NS3, sequence (A3EZJ3 whole entry): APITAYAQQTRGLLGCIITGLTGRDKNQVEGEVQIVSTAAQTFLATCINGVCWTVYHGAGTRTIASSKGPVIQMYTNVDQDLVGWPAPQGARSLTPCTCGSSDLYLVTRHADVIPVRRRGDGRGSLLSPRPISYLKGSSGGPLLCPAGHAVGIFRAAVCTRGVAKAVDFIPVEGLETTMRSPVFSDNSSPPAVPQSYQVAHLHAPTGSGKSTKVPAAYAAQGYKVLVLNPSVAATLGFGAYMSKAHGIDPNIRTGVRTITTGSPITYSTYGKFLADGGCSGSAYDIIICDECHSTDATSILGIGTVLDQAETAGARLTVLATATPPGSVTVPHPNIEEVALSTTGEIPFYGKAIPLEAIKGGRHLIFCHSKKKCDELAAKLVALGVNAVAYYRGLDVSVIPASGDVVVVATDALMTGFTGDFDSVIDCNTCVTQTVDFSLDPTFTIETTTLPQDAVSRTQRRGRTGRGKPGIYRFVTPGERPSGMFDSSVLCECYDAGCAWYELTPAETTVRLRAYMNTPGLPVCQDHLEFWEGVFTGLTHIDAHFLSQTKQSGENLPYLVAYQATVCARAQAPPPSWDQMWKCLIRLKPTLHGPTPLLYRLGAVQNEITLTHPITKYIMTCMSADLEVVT

This assay concerns the target NS3 (Hepatitis C virus, UniProt A3EZJ3). The assay is described as follows: Inhibitory activity against Hepatitis C virus NS3 protease by ELISA. On the set-up: species or system Hepacivirus hominis. On the technique in general: ELISA stands for enzyme-linked immunosorbent assay.
In the case of `O=C(OC[C@H]1O[C@H](OC(=O)c2cc(O)c(O)c(O)c2)[C@H](OC(=O)c2cc(O)c(O)c(O)c2)[C@@H](OC(=O)c2cc(O)c(O)c(O)c2)[C@@H]1O)c1cc(O)c(O)c(O)c1`, the half-inhibitory concentration (IC50) (in general, the concentration that inhibits the measured activity by half) was determined as 750 nM.
The value for `O=C(OC[C@H]1O[C@@H](OC(=O)c2cc(O)c(O)c(O)c2)[C@H](OC(=O)c2cc(O)c(O)c(O)c2)[C@@H](O)[C@@H]1O)c1cc(O)c(O)c(O)c1` was 1890 nM; that for `O=C(OC[C@H]1O[C@@H](OC(=O)c2cc(O)c(O)c(O)c2)[C@H](OC(=O)c2cc(O)c(O)c(O)c2)[C@@H](OC(=O)c2cc(O)c(O)c(O)c2)[C@@H]1OC(=O)c1cc(O)c(O)c(O)c1)c1cc(O)c(O)c(O)c1` [PENTAGALLOYL GLUCOSE] was 1600 nM.
